Experimental findings from PubChem BioAssay (NCI) are described below.

Molecules are shown by their SMILES.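 In this assay, cells in 96-well plates receive the compound at five concentrations for 48 hours. Endpoints are linearly interpolated between the surrounding concentrations. At the TGI there is no net growth.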

What all share (test): DTP human tumour cell line panel, 48 h
For experiment [1], the system named is T-47D breast.
In experiment [2] the test system is MDA-MB-231 breast.
In experiment [3] the test system is OVCAR-5 ovarian.
The test system of experiment [4] is SF-539 CNS.
Experiment [5] has as its system SK-MEL-2 melanoma.
The subject of experiment [6] is NCI/ADR-RES ovarian.
The test system of experiment [7] is LOX IMVI melanoma.
For experiment [8], the system named is CAKI-1 renal.
The subject of experiment [9] is HCT-15 colon.
Experiment [10] concerns HOP-92 NSCLC.
For experiment [11], the system named is ACHN renal.
Experiment [12] deals with CCRF-CEM leukemia.
Experiment [13] relates to RXF 393 renal.
For experiment [14], the system named is OVCAR-3 ovarian.
In experiment [15] the test system is K-562 leukemia.
The test system of experiment [16] is OVCAR-8 ovarian.
The subject of experiment [17] is TK-10 renal.
Experiment [18] concerns SK-OV-3 ovarian.
Experiment [19] relates to EKVX NSCLC.
The subject of experiment [20] is UO-31 renal.

As to `CSc1c(C(=O)Nc2ccc(Cl)cc2)c(N)[nH]c(=O)c1C#N`, the concentration for total growth inhibition (TGI) in experiment [1] was above 83.3 µM; in [2] it was above 60.9 µM; in [3] it was above 89.2 µM; in experiment [4] it was 68.9 µM; in experiment [5] it was 32.2 µM; in [6] it was above 76.5 µM. The concentration for total growth inhibition (TGI) in experiment [7] was above 25.8 µM; in experiment [8], above 61.1 µM; in [9], above 100 µM; in experiment [10], 59.9 µM; in experiment [11], above 100 µM; in [12], above 100 µM. The concentration for total growth inhibition (TGI) was above 96.3 µM in [13]; 63 µM in experiment [14]; above 100 µM in experiment [15]; above 88.7 µM in experiment [16]; above 100 µM in [17]; above 100 µM in experiment [18]. Further, the concentration for total growth inhibition (TGI) was above 80 µM in experiment [19] and 59 µM in [20].
In the case of `O=C(O)C/C(=C\c1ccccc1)C(=O)O`, the TGI in experiment [1], in experiment [2], in experiment [3], in experiment [4], in experiment [5] and in experiment [6] was above 100 µM each time. For the same compound, the concentration for total growth inhibition (TGI) in experiment [7], in [8], in experiment [9], in experiment [10], in experiment [11] and in [12] was above 100 µM in each case. The concentration for total growth inhibition (TGI) in experiment [13] was above 100 µM; in experiment [14], above 100 µM; in [15] it was 93.5 µM; in [16] it was above 100 µM; in experiment [17], above 100 µM; in [18] it was above 100 µM. The TGI in [19] and in [20] was above 100 µM each time.
`CO[C@@H](c1ccccc1)[C@H](O)[C@](O)(c1ccccc1)P(=O)(OC)OC`: the total growth inhibition concentration (TGI) in experiment [1], in experiment [2], in [3], in experiment [4], in [5] and in experiment [6] was above 100 µM each time. In addition, the TGI in [7], in experiment [8], in experiment [9], in [10], in [11] and in experiment [12] was above 100 µM in each case. Besides, the TGI in experiment [13], in experiment [14], in [15], in [16], in experiment [17] and in experiment [18] was above 100 µM each time. In addition, the TGI in experiment [19] and in experiment [20] was above 100 µM in each case.
In the case of `O=[N+]([O-])c1ccc(N=NN2CCCC2)cc1`, the TGI in experiment [1], in experiment [2], in experiment [3], in [4], in experiment [5] and in [6] was above 100 µM in each case. Moreover, the total growth inhibition concentration (TGI) in [7], in experiment [8], in [9], in [10], in experiment [11] and in experiment [12] was above 100 µM each time. Besides, the concentration for total growth inhibition (TGI) in [13], in experiment [14], in [15], in experiment [16], in experiment [17] and in experiment [18] was above 100 µM in each case. The TGI in [19] and in [20] was above 100 µM throughout.
For `Cc1ccc(-n2cnc3c(N/N=C4\SCC(=O)N4c4ccccc4)ncnc32)cc1`, the TGI in experiment [1] turned out to be 18.7 µM; in experiment [2], 10.5 µM; in experiment [3] it was 25.4 µM; in experiment [4], 3.71 µM; in experiment [5] it was 8.42 µM; in [6] it was 53.8 µM. For the same compound, the TGI in experiment [7] came to 10.3 µM; in experiment [8] it was 18.9 µM; in experiment [9], 11.5 µM; in [10], 11.3 µM; in experiment [11], 18.6 µM; in experiment [12], 4.93 µM. Besides, the TGI in experiment [13] was 5.8 µM; in experiment [14] it was 11.5 µM; in experiment [15] it was above 100 µM; in experiment [16], 11.8 µM; in experiment [17] it was 14.3 µM; in experiment [18] it was 27.7 µM. Moreover, the total growth inhibition concentration (TGI) was 29 µM in experiment [19] and 17.9 µM in experiment [20].

In general, TGI refers to the concentration at which net growth stops.
